Measured values as given in ChEMBL document CHEMBL1201862, “PubChem BioAssay data set” (2004).
Calls of active or inactive are those of the source.

How the values were obtained:
[1] = inhibitors of firefly luciferase expression or activity, dose response, H4 neuroglioma cells, luminescence (AID 1990); type: functional, cell-based
[2] = Luminescence Cell-Based Dose Response HTS to Identify Inhibitors of 5'UTR Stem-Loop Driven Prion Protein mRNA Translation in H4 Neuroglioblastoma Cells. [Related pubchem assays: 1827 (Project Summary), 1813 (Primary HTS)]; type: functional
[3] = inhibitors of SNCA 5'UTR-driven reporter translation, confirmation, H4 neuroglioma cells, luminescence (AID 1988); type: functional, cell-based
[4] = enhancers of respiration in Yfh1-depleted yeast, dose response, Friedreich's ataxia, plus single-dose screen (AID 1465); type: functional;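 further: yeast depleted of Yfh1p frataxin homolog grown on glycerol needing respiration; WST-1 tetrazolium dye reduction as measure of cellular dehydrogenase metabolic activity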
[5] = molecular target: T1, Microphthalmia-associated transcription factor (Homo sapiens, UniProt O75030); test: TRPM1 promoter luciferase signal decrease, dose response, MITF inhibitor project, cell-based, SK-MEL-5, cherry-picked, set 3 (AID 493073); type: functional
T1 sequence (O75030 whole entry): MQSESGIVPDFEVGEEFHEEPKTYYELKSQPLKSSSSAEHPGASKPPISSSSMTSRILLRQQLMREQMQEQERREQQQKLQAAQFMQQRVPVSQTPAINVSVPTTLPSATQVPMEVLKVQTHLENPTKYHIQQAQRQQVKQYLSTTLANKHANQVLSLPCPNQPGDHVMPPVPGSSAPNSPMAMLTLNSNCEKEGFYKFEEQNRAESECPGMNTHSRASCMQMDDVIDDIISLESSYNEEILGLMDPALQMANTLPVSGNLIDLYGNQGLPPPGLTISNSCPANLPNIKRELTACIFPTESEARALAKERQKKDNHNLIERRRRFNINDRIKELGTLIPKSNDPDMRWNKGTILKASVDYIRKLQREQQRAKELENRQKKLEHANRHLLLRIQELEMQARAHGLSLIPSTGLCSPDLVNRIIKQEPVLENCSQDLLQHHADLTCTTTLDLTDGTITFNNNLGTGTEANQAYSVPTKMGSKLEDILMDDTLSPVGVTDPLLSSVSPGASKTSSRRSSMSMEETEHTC

[6] = molecular target: 26S proteasome non-ATPase regulatory subunit 14 (Homo sapiens, UniProt O00487); test: inhibition of proteasome subunit RPN11 – biochemical, fluorescence polarization, uHTS hits, confirmation (AID 602368); type: functional
[7] = molecular target: 72 kDa type IV collagenase (Homo sapiens, UniProt P08253); test: Dose Response validation of uHTS RPN11 inhibitor hits using a MMP-2 Fluorescence assay.; type: functional
Prothrombin = Prothrombin (Bos taurus, UniProt P00735); test: thrombin inhibition, dose response, biochemical, fluorescence polarization, uHTS hits (AID 602369); type: functional
[8] = NIH-3T3 fibroblast cytotoxicity, dose response, cytotoxicity control, cell-based, fluorescence, Alamar Blue, secondary assay (AID 2327); type: functional;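 further: NIH-3T3 mouse fibroblasts cultured with fluconazole at 8 µg/mL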
HeLa = test: Cytotoxicity counterscreen assay for transcriptional activators of heat shock protein 70 (Hsp70). [Related pubchem assays: 1203, 1252 ]; type: functional; settings: Homo sapiens
[9] = C. albicans growth with fluconazole, confirmation, fluorescence, retest (AID 2467); type: functional, cell-based
[10] = cytotoxicity in HPDE-C7 cells, cell-based, fluorescence, HTS (AID 430); type: functional; settings: Homo sapiens
[11] = cytotoxicity in KRAS-transformed pancreatic duct cells, primary screen, cell-based, fluorescence, HTS (AID 431); type: functional; settings: Homo sapiens;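 further: cell line used: HPDE-C7K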
[12] = molecular target: Serine/threonine-protein phosphatase (Candida dubliniensis (strain CD36 / CBS 7987 / NCPF 3949 / NRRLY-17841) (Yeast), UniProt B9W6M3); test: calcineurin pathway inhibitors in yeast reporter, dose response, S. cerevisiae, CDRE-lacZ, luminescence, secondary (AID 2388); type: functional, cell-based;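 further: yeast reporter cells carrying a calcineurin-responsive lacZ construct stimulated with calcium chloride; luminescent beta-galactosidase reporter signal in whole cells rather than isolated phosphatase activity; potency for inhibition where a drop in reporter signal means calcineurin blockade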
[13] = molecular target: Induced myeloid leukemia cell differentiation protein Mcl-1 (Homo sapiens, UniProt Q07820); type: functional
[14] = molecular target: T2, Heat shock factor protein 1 (Mus musculus, UniProt P38532); test: HSF1 potentiators in luciferase reporter cells, confirmation, cell-based, NIH3T3, luminescence, dose retest (AID 435004); type: functional;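 further: stress induced by proteasome inhibitor MG132 added 30 min after compound; luciferase reporter driven by HSF1 response element in NIH3T3 cells; actives raise luminescence as potentiators of the MG132 stress response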
T2 sequence (P38532 whole entry): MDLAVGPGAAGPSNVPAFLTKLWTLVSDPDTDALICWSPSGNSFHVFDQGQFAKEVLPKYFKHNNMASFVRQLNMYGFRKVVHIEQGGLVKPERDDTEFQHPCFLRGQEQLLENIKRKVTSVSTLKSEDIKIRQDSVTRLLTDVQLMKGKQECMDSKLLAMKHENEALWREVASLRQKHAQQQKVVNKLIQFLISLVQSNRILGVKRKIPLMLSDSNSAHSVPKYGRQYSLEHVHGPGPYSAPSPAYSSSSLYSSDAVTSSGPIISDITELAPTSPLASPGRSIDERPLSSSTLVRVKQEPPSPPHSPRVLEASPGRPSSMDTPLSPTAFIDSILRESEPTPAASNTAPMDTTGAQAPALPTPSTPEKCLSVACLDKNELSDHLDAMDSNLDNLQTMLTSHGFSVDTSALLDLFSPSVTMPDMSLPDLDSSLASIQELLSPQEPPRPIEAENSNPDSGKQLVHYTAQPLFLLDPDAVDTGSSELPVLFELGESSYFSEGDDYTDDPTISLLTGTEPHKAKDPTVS

[15] = molecular target: ATP-dependent molecular chaperone HSP82 (Candida albicans (strain WO-1) (Yeast), UniProt C4YTQ8); test: loss of DOC-induced GRE-beta-galactosidase reporter signal, dose response, Hsp90 inhibitor project, S. cerevisiae, luminescence (AID 2400); type: functional, cell-based;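 further: beta-galactosidase luminescence from glucocorticoid response element reporter as proxy for Hsp90 function; inhibitor potency where signal loss means Hsp90 inhibition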
[16] = molecular target: T3, Sphingosine 1-phosphate receptor 4 (Homo sapiens, UniProt O95977); test: Fluorescence dose response cell-based high throughput screening assay for antagonists of the Sphingosine 1-Phosphate Receptor 4 (S1P4). [Related pubchem assays: 1524 (Confirmation in triplicates.), 1510 (Primary screen.)]; type: functional
T3 sequence (O95977 whole entry): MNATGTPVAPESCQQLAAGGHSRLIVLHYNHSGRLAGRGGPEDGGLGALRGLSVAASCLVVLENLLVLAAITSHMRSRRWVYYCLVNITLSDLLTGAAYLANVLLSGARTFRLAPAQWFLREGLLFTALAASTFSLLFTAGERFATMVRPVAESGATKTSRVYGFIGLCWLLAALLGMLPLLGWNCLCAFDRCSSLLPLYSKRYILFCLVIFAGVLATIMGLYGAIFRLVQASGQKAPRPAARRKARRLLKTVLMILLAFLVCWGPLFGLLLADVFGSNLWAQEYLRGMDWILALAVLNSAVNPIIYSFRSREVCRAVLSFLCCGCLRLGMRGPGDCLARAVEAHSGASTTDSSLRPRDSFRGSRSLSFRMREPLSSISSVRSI

[17] = molecular target: Sphingosine 1-phosphate receptor 1 (Homo sapiens, UniProt P21453); type: functional;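 further: Tango beta-arrestin reporter U2OS cells stimulated with S1P near its EC80; inhibitor potency meaning antagonism of receptor activation by the natural agonist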
[18] = molecular target: T4, Replicative DNA helicase DnaB (Mycobacterium tuberculosis, UniProt P9WMR3); test: DnaB intein splicing inhibitors, dose response, biochemical, cell-free fluorescence (AID 449749); type: functional
T4 sequence (P9WMR3 whole entry): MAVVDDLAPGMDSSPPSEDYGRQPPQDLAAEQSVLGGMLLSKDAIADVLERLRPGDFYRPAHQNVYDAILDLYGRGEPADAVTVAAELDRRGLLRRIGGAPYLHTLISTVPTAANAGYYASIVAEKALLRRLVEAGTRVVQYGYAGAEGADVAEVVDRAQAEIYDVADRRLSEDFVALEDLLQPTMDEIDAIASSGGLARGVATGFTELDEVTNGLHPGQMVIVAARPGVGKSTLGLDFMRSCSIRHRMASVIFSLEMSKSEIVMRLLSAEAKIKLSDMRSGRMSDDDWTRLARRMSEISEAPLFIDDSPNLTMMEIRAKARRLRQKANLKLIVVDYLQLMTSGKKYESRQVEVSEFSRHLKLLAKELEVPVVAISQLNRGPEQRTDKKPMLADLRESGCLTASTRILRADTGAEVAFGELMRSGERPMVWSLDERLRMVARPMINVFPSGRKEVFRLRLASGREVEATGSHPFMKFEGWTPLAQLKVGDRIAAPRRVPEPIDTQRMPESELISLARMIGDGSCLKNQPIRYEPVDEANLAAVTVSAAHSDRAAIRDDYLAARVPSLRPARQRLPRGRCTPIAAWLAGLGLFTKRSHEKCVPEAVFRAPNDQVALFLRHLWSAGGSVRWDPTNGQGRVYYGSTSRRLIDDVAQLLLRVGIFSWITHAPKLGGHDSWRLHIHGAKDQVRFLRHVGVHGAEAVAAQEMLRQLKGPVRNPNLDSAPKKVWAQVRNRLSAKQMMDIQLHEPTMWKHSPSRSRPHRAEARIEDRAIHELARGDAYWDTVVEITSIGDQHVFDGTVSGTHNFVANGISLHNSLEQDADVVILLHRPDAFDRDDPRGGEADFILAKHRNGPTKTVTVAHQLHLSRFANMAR

Protein RecA = molecular target: T5, Protein RecA (Mycobacterium tuberculosis, UniProt P9WHJ3); test: Fluorescence Cell-Free Homogeneous Dose Retest to Identify Inhibitors of RecA-Intein Splicing Activity. [Related pubchem assays (depositor defined):AID2097, AID2223, AID489010, AID492950]; type: functional
T5 sequence (P9WHJ3 whole entry): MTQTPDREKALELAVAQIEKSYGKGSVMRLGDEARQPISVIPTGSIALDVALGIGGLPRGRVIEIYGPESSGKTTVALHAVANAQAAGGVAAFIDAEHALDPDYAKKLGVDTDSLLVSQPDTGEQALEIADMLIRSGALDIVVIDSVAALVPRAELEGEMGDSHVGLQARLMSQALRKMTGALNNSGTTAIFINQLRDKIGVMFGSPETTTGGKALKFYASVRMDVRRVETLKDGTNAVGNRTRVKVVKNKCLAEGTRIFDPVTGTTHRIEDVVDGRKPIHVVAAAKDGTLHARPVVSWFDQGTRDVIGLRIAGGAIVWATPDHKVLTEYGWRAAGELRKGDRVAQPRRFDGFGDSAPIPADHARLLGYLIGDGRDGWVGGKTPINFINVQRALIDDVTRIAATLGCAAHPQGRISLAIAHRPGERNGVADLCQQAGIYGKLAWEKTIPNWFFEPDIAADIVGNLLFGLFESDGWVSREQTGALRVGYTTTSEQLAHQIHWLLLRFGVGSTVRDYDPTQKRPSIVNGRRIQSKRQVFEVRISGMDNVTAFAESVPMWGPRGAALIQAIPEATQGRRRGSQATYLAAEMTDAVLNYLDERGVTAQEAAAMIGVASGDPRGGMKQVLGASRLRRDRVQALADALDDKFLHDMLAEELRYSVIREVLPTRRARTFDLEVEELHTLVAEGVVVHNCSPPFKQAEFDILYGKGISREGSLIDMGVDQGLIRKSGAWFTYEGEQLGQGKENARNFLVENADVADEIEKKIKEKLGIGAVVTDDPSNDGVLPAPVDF

[19] = molecular target: Beta-2 adrenergic receptor (Homo sapiens, UniProt P07550); test: beta2AR agonists driving receptor internalization, dose response, cell-based, FAP fluorogen, flow cytometry, cherry pick 1 (AID 588763); type: functional
[20] = Shn3 3'UTR reporter inhibitors, dose response, cell-based, Clone20 osteoblasts, firefly luciferase, cherry-picked (AID 624132); type: functional;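 further: firefly luciferase luminescence from reporter carrying the Shn3 3'UTR in osteoblasts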
[21] = control 3'UTR Renilla luciferase suppression, dose response, counter-screen for Shn3 inhibitor project, cell-based, Clone20-Shn3RL, cherry-picked (AID 624133); type: functional
Estrogen receptor = molecular target: T6, Estrogen receptor (Homo sapiens, UniProt P03372); test: potentiators of ERα–SRC-1 coactivator binding, dose response, biochemical, TR-FRET, ERα LBD (AID 737)
T6 sequence (P03372 whole entry): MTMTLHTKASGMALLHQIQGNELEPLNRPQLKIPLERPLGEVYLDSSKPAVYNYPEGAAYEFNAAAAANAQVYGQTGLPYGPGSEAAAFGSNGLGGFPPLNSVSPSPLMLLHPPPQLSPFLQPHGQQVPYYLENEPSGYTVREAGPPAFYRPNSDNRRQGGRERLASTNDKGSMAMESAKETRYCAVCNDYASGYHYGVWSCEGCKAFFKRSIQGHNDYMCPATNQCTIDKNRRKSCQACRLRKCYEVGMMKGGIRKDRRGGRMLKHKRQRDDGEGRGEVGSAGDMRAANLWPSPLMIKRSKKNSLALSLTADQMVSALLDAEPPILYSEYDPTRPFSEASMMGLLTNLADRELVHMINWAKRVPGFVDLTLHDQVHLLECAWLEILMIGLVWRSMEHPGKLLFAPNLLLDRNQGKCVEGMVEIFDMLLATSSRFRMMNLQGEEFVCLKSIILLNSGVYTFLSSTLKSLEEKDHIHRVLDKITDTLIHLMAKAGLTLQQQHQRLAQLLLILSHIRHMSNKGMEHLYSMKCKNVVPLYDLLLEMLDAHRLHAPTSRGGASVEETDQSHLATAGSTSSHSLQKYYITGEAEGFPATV

[22] = molecular target: ADP-ribosylation factor GTPase-activating protein 1 (Rattus norvegicus, UniProt Q62848); test: Fluorescence polarization-based biochemical high throughput dose response screening assay to identify inhibitors of ADP-ribosylation factor GTPase activating protein 1 (ARFGAP1).; type: functional
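Wherever CC50 is given: cells exposed to compound for 16 hours before readout.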

Sequence of 72 kDa type IV collagenase (P08253 whole entry): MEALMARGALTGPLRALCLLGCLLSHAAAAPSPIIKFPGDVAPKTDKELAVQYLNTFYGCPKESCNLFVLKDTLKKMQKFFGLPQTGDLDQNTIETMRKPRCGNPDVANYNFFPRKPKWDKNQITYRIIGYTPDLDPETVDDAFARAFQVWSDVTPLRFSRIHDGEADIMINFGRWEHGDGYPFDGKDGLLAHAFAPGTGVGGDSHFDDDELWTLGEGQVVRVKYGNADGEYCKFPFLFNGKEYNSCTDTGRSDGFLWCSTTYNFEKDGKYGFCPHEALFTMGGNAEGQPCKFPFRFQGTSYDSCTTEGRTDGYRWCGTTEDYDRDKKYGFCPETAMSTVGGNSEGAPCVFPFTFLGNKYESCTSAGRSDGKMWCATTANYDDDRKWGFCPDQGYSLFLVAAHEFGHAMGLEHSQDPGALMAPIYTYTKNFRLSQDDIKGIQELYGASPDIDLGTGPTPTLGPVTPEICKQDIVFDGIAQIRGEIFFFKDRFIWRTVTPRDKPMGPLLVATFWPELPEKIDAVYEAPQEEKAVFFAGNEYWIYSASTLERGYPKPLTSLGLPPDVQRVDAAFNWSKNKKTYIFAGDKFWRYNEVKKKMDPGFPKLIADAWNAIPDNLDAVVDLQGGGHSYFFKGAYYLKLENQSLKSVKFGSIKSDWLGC
Sequence of Sphingosine 1-phosphate receptor 1 (P21453 whole entry): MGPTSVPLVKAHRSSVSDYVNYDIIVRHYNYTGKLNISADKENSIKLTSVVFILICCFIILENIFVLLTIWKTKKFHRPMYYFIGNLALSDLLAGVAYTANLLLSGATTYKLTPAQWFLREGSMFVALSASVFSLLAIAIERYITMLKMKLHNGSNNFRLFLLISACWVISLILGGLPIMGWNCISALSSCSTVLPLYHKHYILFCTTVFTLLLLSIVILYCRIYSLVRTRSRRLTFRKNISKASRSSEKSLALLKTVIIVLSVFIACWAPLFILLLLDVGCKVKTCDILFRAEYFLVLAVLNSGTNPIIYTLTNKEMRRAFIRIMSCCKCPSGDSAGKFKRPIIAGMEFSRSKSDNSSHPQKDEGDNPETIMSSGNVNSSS
Sequence of Beta-2 adrenergic receptor (P07550 whole entry): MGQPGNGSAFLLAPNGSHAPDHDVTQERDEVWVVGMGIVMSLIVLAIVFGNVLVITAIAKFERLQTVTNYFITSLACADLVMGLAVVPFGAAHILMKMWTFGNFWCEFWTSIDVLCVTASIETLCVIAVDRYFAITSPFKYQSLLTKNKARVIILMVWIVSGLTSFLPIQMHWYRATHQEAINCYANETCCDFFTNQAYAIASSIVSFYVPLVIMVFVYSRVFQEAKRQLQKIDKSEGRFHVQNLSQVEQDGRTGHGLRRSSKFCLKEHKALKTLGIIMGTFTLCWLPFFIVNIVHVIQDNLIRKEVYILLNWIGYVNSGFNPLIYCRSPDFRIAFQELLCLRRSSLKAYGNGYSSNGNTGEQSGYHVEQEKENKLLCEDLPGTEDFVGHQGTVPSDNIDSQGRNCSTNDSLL
Sequence of Serine/threonine-protein phosphatase (B9W6M3 whole entry): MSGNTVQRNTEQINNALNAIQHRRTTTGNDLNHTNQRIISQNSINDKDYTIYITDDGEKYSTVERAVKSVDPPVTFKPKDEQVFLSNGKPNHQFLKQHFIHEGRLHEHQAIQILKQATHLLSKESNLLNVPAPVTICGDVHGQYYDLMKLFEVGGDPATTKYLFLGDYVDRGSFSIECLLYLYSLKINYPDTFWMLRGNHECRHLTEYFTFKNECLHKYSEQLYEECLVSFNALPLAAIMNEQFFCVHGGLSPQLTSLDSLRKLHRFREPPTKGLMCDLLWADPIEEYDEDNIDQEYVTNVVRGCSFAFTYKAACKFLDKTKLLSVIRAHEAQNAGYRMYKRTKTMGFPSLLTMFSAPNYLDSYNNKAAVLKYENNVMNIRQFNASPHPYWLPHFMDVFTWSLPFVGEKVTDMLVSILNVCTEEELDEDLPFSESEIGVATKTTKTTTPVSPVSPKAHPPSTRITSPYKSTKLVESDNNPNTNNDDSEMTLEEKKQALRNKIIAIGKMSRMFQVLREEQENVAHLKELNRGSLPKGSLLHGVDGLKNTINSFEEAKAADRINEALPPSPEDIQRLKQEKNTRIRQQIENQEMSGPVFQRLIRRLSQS
Sequence of Induced myeloid leukemia cell differentiation protein Mcl-1 (Q07820 whole entry): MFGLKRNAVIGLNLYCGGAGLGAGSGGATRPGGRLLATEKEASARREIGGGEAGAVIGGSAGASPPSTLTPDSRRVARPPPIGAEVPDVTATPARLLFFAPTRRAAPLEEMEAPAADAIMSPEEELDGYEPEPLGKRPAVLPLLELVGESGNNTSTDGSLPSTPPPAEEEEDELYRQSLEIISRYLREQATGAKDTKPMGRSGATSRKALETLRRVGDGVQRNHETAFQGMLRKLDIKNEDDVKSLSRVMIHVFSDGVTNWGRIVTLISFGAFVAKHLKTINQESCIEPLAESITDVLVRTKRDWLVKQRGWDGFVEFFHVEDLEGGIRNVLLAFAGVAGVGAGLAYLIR
Sequence of 26S proteasome non-ATPase regulatory subunit 14 (O00487 whole entry): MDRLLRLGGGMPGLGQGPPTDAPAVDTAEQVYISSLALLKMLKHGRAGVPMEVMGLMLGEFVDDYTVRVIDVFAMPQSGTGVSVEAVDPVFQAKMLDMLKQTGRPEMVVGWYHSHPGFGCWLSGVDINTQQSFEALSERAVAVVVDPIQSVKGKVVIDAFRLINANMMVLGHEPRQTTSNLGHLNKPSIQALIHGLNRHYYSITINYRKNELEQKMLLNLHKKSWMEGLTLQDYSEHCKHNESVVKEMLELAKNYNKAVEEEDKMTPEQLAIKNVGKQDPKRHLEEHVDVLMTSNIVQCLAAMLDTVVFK
Sequence of ADP-ribosylation factor GTPase-activating protein 1 (Q62848 whole entry): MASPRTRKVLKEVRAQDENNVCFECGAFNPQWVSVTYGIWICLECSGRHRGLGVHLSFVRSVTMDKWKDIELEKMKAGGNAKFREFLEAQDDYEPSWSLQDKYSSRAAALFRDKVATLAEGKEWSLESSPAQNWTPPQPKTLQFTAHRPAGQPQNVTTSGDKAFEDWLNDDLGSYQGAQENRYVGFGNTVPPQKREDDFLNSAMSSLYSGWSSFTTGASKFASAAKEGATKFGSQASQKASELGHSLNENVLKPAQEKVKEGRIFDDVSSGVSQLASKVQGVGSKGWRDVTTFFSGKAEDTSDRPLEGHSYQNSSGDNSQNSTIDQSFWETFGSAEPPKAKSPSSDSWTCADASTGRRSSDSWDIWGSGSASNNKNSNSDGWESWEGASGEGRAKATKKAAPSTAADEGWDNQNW
Sequence of ATP-dependent molecular chaperone HSP82 (C4YTQ8 whole entry): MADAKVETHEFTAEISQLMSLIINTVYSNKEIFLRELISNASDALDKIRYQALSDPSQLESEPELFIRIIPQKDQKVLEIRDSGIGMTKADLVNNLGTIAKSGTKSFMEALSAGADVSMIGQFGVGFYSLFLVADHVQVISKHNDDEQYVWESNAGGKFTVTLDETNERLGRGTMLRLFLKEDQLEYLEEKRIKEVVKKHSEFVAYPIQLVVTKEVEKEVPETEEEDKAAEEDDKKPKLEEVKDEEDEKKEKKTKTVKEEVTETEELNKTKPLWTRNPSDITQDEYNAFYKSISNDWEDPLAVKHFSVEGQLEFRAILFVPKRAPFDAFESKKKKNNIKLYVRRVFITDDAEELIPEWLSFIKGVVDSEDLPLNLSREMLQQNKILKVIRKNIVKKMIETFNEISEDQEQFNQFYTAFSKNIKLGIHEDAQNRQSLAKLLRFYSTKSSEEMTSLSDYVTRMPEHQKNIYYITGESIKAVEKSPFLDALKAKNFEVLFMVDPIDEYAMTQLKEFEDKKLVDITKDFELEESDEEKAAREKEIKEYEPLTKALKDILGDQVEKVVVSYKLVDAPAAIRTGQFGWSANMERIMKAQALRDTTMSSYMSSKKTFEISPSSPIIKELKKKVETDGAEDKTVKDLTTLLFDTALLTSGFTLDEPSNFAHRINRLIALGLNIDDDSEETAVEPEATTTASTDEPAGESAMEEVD

## CCN(CCO)c1ccc(N=Nc2cc(C)[nH]n2)cc1
[1]
  EC50: 5.43 µM (active)
[2]
  EC50: 4.08 µM (active)
[3]
  EC50: 4.94 µM (active)
[4]
  EC50: > 100 µM (active)
[5]
  AC50: 3.6 µM (active)
[6]
  IC50: 53 µM (active)
[7]
  IC50: > 100 µM (inactive)
Prothrombin
  IC50: 61.2 µM (active)

## COc1ccc(C(c2c(O)ccc3ccccc23)N2CCOCC2)c(OC)c1 (stereo unspecified)
[8]
  EC50: 11.6 µM (active)
HeLa
  CC50: 44.3 µM (not active)
[9]
  EC50: 1.82 µM (active)
[10]
  EC50: 4.07 µM (active)
[11]
  EC50: 3.89 µM (active)
[12]
  EC50: > 180 µM (inactive)
[13]
  IC50: 1.62 µM (active)
[14]
  EC50: 12.5 µM (active)
[15]
  EC50: > 160 µM (inactive)

## CC(C)c1nnc(NC(=O)CCS(=O)(=O)c2nc(-c3cccs3)cc(C(F)(F)F)n2)s1
[16]
  IC50: 1.1 µM (active)
[17]
  IC50: 13.5 µM (not active)
[18]
  AC50: > 120 µM (inactive)
Protein RecA
  EC50: 30.4 µM (inconclusive)
[19]
  EC50: 33.7 µM (inactive)
[20]
  AC50: 3.02 µM (active)
[21]
  AC50: 6.01 µM (active)

## COc1ccc(CCn2c(SCC(=O)Nc3cc(C)on3)nc3ccsc3c2=O)cc1OC
Estrogen receptor
  EC50: 12.8 µM (active)
[22]
  IC50: 44 µM (inactive)
